Test results as given in paper PMC2364081, “Antagonists of retinoic acid receptors (RARs) are potent growth inhibitors of prostate carcinoma cells” (British Journal of Cancer, 2001).

Experiments:
[1] = molecular target: RARs; assay: Binding to RARs (stated over all three subtypes); details: range over RARα, RARβ and RARγ
From the text: (§1) Prostate cancer is one of the most common cancers in European and American males and has a high mortality rate (Landis et al, 1998; Rosenthal, 1998). Early disease is managed conservatively in Europe although in selected patients surgery is curative. In advanced disease, androgen ablation can produce symptomatic improvement, but the tumour often re-emerges in an androgen- independent and incurable form. One proposed treatment for androgen-independent prostate carcinoma is differentiation ther- apy, in which agents such as all-trans-retinoic acid (ATRA), 9-cis- retinoic acid and 1, 25-dihydroxyvitamin D3 (D3 ) are used to induce growth arrest, differentiation and sometimes apoptosis of the tumour cells (Liang et al, 1999; de Vos et al, 1997; Skowronski et al, 1994; Hedlund et al, 1997). ATRA and synthetic analogues exert their biological effects by binding to two families of retinoid receptors, […]. These are ligand-dependent transcription factors of the steroid/thyroid hormone nuclear receptor superfamily (Chambon 1994; Boehm et al, 1995). Activated RARs bind to retinoic acid-responsive elements (RAREs) in the promoters of genes and thus regulate gene expression. They also antagonize the activity of the tran- scription factor AP1 and thereby down-regulate the expression of some AP1-activated genes (Nagpal et al, 1995). […]

[2] = tested on: PC3 ITS+ cells; assay: Plate colony formation assay, serum-free (ITS+)-grown PC3; assay type: cell-based, human; details: 14 days
From the text: (§2) Prostate cancer is one of the most common cancers in European and American males and has a high mortality rate (Landis et al, 1998; Rosenthal, 1998). Early disease is managed conservatively in Europe although in selected patients surgery is curative. In advanced disease, androgen ablation can produce symptomatic improvement, but the tumour often re-emerges in an androgen- independent and incurable form. One proposed treatment for androgen-independent prostate carcinoma is differentiation ther- apy, in which agents such as all-trans-retinoic acid (ATRA), 9-cis- retinoic acid and 1, 25-dihydroxyvitamin D3 (D3 ) are used to induce growth arrest, differentiation and sometimes apoptosis of the tumour cells (Liang et al, 1999; de Vos et al, 1997; Skowronski et al, 1994; Hedlund et al, 1997). ATRA and synthetic analogues exert their biological effects by binding to two families of retinoid receptors, the RARs (RAR, RAR and RAR) and the RXRs (RXR, RXR and RXR). These are ligand-dependent transcription factors of the steroid/thyroid hormone nuclear receptor superfamily (Chambon 1994; Boehm et al, 1995). Activated RARs bind to retinoic acid-responsive elements (RAREs) in the promoters of genes and thus regulate gene expression. They also antagonize the activity of the tran- scription factor AP1 and thereby down-regulate the expression of some AP1-activated genes (Nagpal et al, 1995). One approach to unravelling the contributions of RAR sub-types to these actions has been the development of synthetic retinoids with selective activities at individual RARs and RXRs. For example, the diaryl- acetylenic retinoids allow separation of transactivation and AP1 antagonism functions at RAR (Nagpal et al, 1995). Recently, compounds that are selective for particular RAR sub-types have been synthesized: these include both agonists and antagonists (Chandraratna, 1995; Teng et al, 1999; Johnson et al, 1999). The functional selectivity of these compounds may open the way to achieving differentiation or apoptosis of tumour cells with minimal systemic side effects (Chandraratna, 1995). […]

[3] = tested on: DU145 ITS+ cells; assay: Plate colony formation assay, serum-free (ITS+)-grown DU145; assay type: cell-based, human; details: 14 days
From the text: as §2

[4] = tested on: LNCaP, PC3 and DU145 cells; assay: Plate colony formation assay, stated over the three serum-free grown lines; assay type: cell-based, human
From the text: (§3) Prostate cancer is one of the most common cancers in European and American males and has a high mortality rate (Landis et al, 1998; Rosenthal, 1998). Early disease is managed conservatively in Europe although in selected patients surgery is curative. In advanced disease, androgen ablation can produce symptomatic improvement, but the tumour often re-emerges in an androgen- independent and incurable form. One proposed treatment for androgen-independent prostate carcinoma is differentiation ther- apy, in which agents such as all-trans-retinoic acid (ATRA), 9-cis- retinoic acid and 1, 25-dihydroxyvitamin D3 (D3 ) are used to induce growth arrest, differentiation and sometimes apoptosis of the tumour cells (Liang et al, 1999; de Vos et al, 1997; Skowronski et al, 1994; Hedlund et al, 1997). ATRA and synthetic analogues exert their biological effects by binding to two families of retinoid receptors, […]. These are ligand-dependent transcription factors of the steroid/thyroid hormone nuclear receptor superfamily (Chambon 1994; Boehm et al, 1995). Activated RARs bind to retinoic acid-responsive elements (RAREs) in the promoters of genes and thus regulate gene expression. They also antagonize the activity of the tran- scription factor AP1 and thereby down-regulate the expression of some AP1-activated genes (Nagpal et al, 1995). One approach to unravelling the contributions of RAR sub-types to these actions has been the development of synthetic retinoids with selective activities at individual RARs and RXRs. For example, the diaryl- acetylenic retinoids allow separation of transactivation and AP1 antagonism functions at RAR (Nagpal et al, 1995). Recently, compounds that are selective for particular RAR sub-types have been synthesized: these include both agonists and antagonists (Chandraratna, 1995; Teng et al, 1999; Johnson et al, 1999). The functional selectivity of these compounds may open the way to achieving differentiation or apoptosis of tumour cells with minimal systemic side effects (Chandraratna, 1995). Cell lines that are commonly used in the evaluation of investiga- tional agents for prostate cancer include LNCaP, DU-145 and PC- 3. […] These lines are relatively insensitive to growth inhibition and induction of apoptosis by ATRA and by synthetic agonists. […] Fenretinide (4HPR) induces apoptosis of LNCaP and of PC-3 cells at 1-5 M and 25 µM, respectively (Pienta et al, 1993; Heish and Wu, 1997). Pfahl and colleagues examined the growth inhibitory effects of a panel of receptor-selective retinoids against DU145 and PC-3 cells and achieved complete growth inhibition and induction of apoptosis between 1 M and 10 M (Lu et al, 1999). […] Antagonists of retinoic acid receptors (RARs) are potent growth inhibitors of prostate carcinoma cells LA Hammond1 , CH Van Krinks2 , J Durham2 , SE Tomkins2 , RD Burnett3 , EL Jones1 , RAS Chandraratna3 and G Brown2 Divisions of 1 Cancer Studies and of 2 Immunity and Infection, University of Birmingham Medical School, Edgbaston, Birmingham B15 2TT, UK and 3 Retinoid Research, Allergan Inc., Irvine, California, USA Summary Novel synthetic antagonists of retinoic acid receptors (RARs) have been developed. To avoid interference by serum retinoids when testing these compounds, we established serum-free grown sub-lines (>3 years) of the prostate carcinoma lines LNCaP, PC3 and DU145. […] A component(s) of serum and of LNCaP-conditioned medium diminishes the activity of antagonists: this factor is not the most likely candidates IGF-1 and EGF. In vitro studies of RAR antagonists together with data from RAR-null mice lead to the hypothesis that RAR-regulated gene transcription is necessary for the survival and maintenance of prostate epithelium. […]

[5] = tested on: HL60 cells; assay: ATRA-induced differentiation of HL60 cells to neutrophils (nitroblue tetrazolium reduction); assay type: cell-based, human; details: antagonist at 100 nM added with 100 nM ATRA
From the text: as §1

[6] = tested on: HL60 cells; assay: Clonal growth of single serum-free grown HL60 cells in microtitre wells; assay type: cell-based, human
From the text: as §3

[7] = tested on: primary prostate carcinoma cells; assay: Growth of primary prostate carcinoma cells (flask cultures, passage 2); assay type: cell-based, human; details: 10 and 100 nM, two patients, days 3 and 6
From the text: as §1

[8] = molecular target: T1, RARα (Homo sapiens, UniProt P10276); assay: Binding to baculovirus-expressed RARα; set-up: made in house; details: baculovirus-expressed receptor
T1 sequence (P10276 1-462): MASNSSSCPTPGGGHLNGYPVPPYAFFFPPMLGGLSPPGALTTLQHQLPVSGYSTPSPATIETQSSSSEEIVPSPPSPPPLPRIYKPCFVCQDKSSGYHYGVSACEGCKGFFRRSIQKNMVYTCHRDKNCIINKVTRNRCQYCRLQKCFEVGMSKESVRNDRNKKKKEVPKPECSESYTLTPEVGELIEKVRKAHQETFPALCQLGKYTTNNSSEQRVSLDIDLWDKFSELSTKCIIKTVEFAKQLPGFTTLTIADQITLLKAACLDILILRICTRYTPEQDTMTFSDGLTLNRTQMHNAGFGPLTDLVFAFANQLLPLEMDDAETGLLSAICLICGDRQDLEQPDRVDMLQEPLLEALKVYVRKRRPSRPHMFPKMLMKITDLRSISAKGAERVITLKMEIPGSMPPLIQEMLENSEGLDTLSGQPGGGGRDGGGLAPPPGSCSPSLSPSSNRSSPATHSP
From the text: as §3

[9] = molecular target: T2, RARβ (Homo sapiens, UniProt P10826); assay: Binding to baculovirus-expressed RARβ; set-up: made in house; details: baculovirus-expressed receptor
T2 sequence (P10826 1-455): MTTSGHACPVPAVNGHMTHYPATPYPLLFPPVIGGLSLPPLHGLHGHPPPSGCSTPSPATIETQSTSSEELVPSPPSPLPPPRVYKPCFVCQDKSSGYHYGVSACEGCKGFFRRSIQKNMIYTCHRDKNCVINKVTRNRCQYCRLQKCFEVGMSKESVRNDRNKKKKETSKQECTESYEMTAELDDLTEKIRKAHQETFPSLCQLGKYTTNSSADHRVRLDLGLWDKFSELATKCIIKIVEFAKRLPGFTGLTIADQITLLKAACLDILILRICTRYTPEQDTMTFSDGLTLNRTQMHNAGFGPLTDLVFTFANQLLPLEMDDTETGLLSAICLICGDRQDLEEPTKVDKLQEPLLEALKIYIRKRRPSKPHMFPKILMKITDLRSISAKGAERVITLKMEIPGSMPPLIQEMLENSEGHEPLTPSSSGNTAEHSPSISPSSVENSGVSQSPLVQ
From the text: as §3

CCc1ccc(C2=CC(C)(C)Sc3ccc(C#Cc4ccc(C(=O)O)cc4)cc32)cc1 [AGN194310]
Kd [1]: 2 to 5 nM | IC50 [2]: 18 nM | IC50 [3]: 34 nM | colony formation (% of control) ([4]; 100 nM, ITS+-grown cells, all three cell lines): 3-7% | fold more potent than ATRA ([4]; against cell lines, serum-free): 12–22 fold | IC50 ([4]; stated over all three serum-free grown lines, read-out: concentration inhibiting colony formation by 50% (IC50)): 16 to 34 nM | percentage of mature cells [5]: 5% | effect on clonal growth of HL60 cells [6]: did not adversely affect | viability of the single cells ([6]; 0.1 µM): > 95% | number of viable cells at day 4 ([6]; 100 nM, control 18): 17 | cloning efficiency ([6]; 100 nM, same as untreated): 90-93% | cell growth of primary lines [7]: substan- tial growth inhibition | Kd [8]: 3 nM | Kd [9]: 2 nM
